Test results taken from PubChem BioAssay AID248 (DTP/NCI, 2004).
Several values for one entry are separate records, joined by “and”; a condition that tells them apart may be missing. Equal entries are not always repeated. Inconclusive results and toxic doses are left out. Rule as the data show it: active = T/C of 150% or more; inactive = T/C below 125%.

Test system: L1210 leukemia ip in BDF1 mice, survival T/C
Assay: NCI In Vivo Anticancer Drug Screen. Data for tumor model L1210 Leukemia (intraperitoneal) in B6D2F1 (BDF1) mice
Conditions: endpoint: mean survival time, higher = longer survival
Outline: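 Value reflects the ratio of survival in compound-treated mice to survival in vehicle-treated controls, with both groups carrying the same transplanted tumor.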

[1] = dose: 100.0 mg/kg/injection, schedule: Q01DX009 (ip), vehicle: Klucel (hydroxypropylcellulose) (HPC)
[2] = dose: 100.0 mg/kg/injection, schedule: Q04DX003 (ip), vehicle: Klucel (hydroxypropylcellulose) (HPC)
[3] = dose: 200.0 mg/kg/injection, schedule: Q01DX009 (ip), vehicle: Klucel (hydroxypropylcellulose) (HPC)
[4] = dose: 200.0 mg/kg/injection, schedule: Q04DX003 (ip), vehicle: Klucel (hydroxypropylcellulose) (HPC)
[5] = dose: 400.0 mg/kg/injection, schedule: Q01DX009 (ip), vehicle: Klucel (hydroxypropylcellulose) (HPC)
[6] = dose: 100.0 mg/kg/injection, schedule: Q04DX003 (ip), vehicle: saline
[7] = dose: 200.0 mg/kg/injection, schedule: Q04DX003 (ip), vehicle: saline
[8] = dose: 100.0 mg/kg/injection, schedule: Q04DX003 (ip), vehicle: saline with Tween-80
[9] = dose: 200.0 mg/kg/injection, schedule: Q04DX003 (ip), vehicle: saline with Tween-80
[10] = dose: 100.0 mg/kg/injection, schedule: Q01DX001 (ip), vehicle: Klucel (hydroxypropylcellulose) (HPC)
[11] = dose: 200.0 mg/kg/injection, schedule: Q01DX001 (ip), vehicle: Klucel (hydroxypropylcellulose) (HPC)
[12] = dose: 50.0 mg/kg/injection, schedule: Q04DX003 (ip), vehicle: Klucel (hydroxypropylcellulose) (HPC)

Measured: T/C

CCC1CCCCN1 (centres undefined)
inactive: dose: 10.0 mg/kg/injection, schedule: Q01DX001 (ip), vehicle: saline 105 % of control | dose: 10.0 mg/kg/injection, schedule: Q01DX009 (ip), vehicle: saline 108 % of control and 111 % of control | dose: 10.0 mg/kg/injection, schedule: Q04DX002 (ip), vehicle: saline 95 % of control and 106 % of control | dose: 10.0 mg/kg/injection, schedule: Q04DX003 (ip), vehicle: saline 103 % of control | dose: 20.0 mg/kg/injection, schedule: Q01DX001 (ip), vehicle: saline 120 % of control | dose: 20.0 mg/kg/injection, schedule: Q01DX009 (ip), vehicle: saline 104 % of control | dose: 20.0 mg/kg/injection, schedule: Q04DX002 (ip), vehicle: saline 103 % of control | dose: 20.0 mg/kg/injection, schedule: Q04DX003 (ip), vehicle: saline 101 % of control | dose: 40.0 mg/kg/injection, schedule: Q01DX001 (ip), vehicle: saline 103 % of control | dose: 40.0 mg/kg/injection, schedule: Q01DX009 (ip), vehicle: saline 104 % of control | dose: 40.0 mg/kg/injection, schedule: Q04DX002 (ip), vehicle: saline 94 % of control and 98 % of control | dose: 40.0 mg/kg/injection, schedule: Q04DX003 (ip), vehicle: saline 97 % of control

CC(C)=C1C2C=CC1C(CO)C2CO (centres undefined)
inactive: [1] 106 % of control | [2] 105 % of control | [3] 91 % of control | [4] 114 % of control | [5] 102 % of control | dose: 400.0 mg/kg/injection, schedule: Q04DX003 (ip), vehicle: Klucel (hydroxypropylcellulose) (HPC) 102 % of control

CN(C)C
inactive: dose: 50.0 mg/kg/injection, schedule: Q01DX009 (ip), vehicle: saline 101 % of control | dose: 100.0 mg/kg/injection, schedule: Q04DX002 (ip), vehicle: saline 105 % of control | [6] 98 % of control | dose: 200.0 mg/kg/injection, schedule: Q04DX002 (ip), vehicle: saline 97 % of control | [7] 94 % of control

CCCCCCCCCC(=O)N(CCC)CCC
inactive: [8] 91 % of control | [9] 88 % of control

NC(N)=NC1=NC(=O)CS1
inactive: dose: 100.0 mg/kg/injection, schedule: Q01DX009 (ip), vehicle: saline with Tween-80 105 % of control | [8] 108 % of control | dose: 200.0 mg/kg/injection, schedule: Q01DX009 (ip), vehicle: saline with Tween-80 103 % of control | [9] 96 % of control | dose: 400.0 mg/kg/injection, schedule: Q01DX009 (ip), vehicle: saline with Tween-80 103 % of control | dose: 400.0 mg/kg/injection, schedule: Q04DX003 (ip), vehicle: saline with Tween-80 92 % of control

O=[N+]([O-])c1ccc(C2=NCCS2)cc1
inactive: dose: 87.0 mg/kg/injection, schedule: Q04DX003 (ip), vehicle: Klucel (hydroxypropylcellulose) (HPC) 102 % of control | dose: 175.0 mg/kg/injection, schedule: Q04DX003 (ip), vehicle: Klucel (hydroxypropylcellulose) (HPC) 102 % of control | dose: 350.0 mg/kg/injection, schedule: Q04DX003 (ip), vehicle: Klucel (hydroxypropylcellulose) (HPC) 102 % of control

CC(C)N=C(NC(C)C)c1ccc(NC(=O)Nc2ccc(NC(=O)Nc3ccc(C(=NC(C)C)NC(C)C)cc3)cc2)cc1
inactive: dose: 1.88 mg/kg/injection, schedule: Q01DX Z (ip), vehicle: carboxymethylcellulose (CMC) 101 % of control | dose: 3.75 mg/kg/injection, schedule: Q01DX Z (ip), vehicle: carboxymethylcellulose (CMC) 102 % of control | dose: 7.5 mg/kg/injection, schedule: Q01DX Z (ip), vehicle: carboxymethylcellulose (CMC) 116 % of control | dose: 15.0 mg/kg/injection, schedule: Q01DX Z (ip), vehicle: carboxymethylcellulose (CMC) 102 % of control

CCOc1ccc2nc(/C=C/c3ccccc3)ccc2c1
inactive: dose: 200.0 mg/kg/injection, schedule: Q01DX001 (ip), vehicle: carboxymethylcellulose (CMC) 89 % of control | dose: 400.0 mg/kg/injection, schedule: Q01DX001 (ip), vehicle: carboxymethylcellulose (CMC) 101 % of control

Nc1cccc(-c2ccccc2)c1
inactive: [10] 92 % of control | [11] 90 % of control

[O-]/[N+](=C\c1ccccc1)C(c1ccccc1)c1ccccc1
inactive: dose: 75.0 mg/kg/injection, schedule: Q04DX003 (ip), vehicle: saline 97 % of control | dose: 150.0 mg/kg/injection, schedule: Q04DX003 (ip), vehicle: saline 96 % of control | dose: 300.0 mg/kg/injection, schedule: Q04DX003 (ip), vehicle: saline 89 % of control

Cc1[nH]c(=S)[nH]c(=O)c1CN(CCO)CCO
inactive: dose: 50.0 mg/kg/injection, schedule: Q01DX001 (ip), vehicle: Klucel (hydroxypropylcellulose) (HPC) 123 % of control | dose: 50.0 mg/kg/injection, schedule: Q01DX009 (ip), vehicle: Klucel (hydroxypropylcellulose) (HPC) 96 % of control | [12] 108 % of control | [10] 101 % of control | [1] 101 % of control | [2] 102 % of control | [11] 101 % of control | [3] 123 % of control | [4] 91 % of control

OC(c1ccccc1)(c1ccccc1)C1CC1c1ccncc1 (centres undefined)
inactive: dose: 25.0 mg/kg/injection, schedule: Q04DX003 (ip), vehicle: saline 107 % of control | dose: 50.0 mg/kg/injection, schedule: Q04DX003 (ip), vehicle: saline 104 % of control | [6] 98 % of control | [7] 98 % of control | dose: 400.0 mg/kg/injection, schedule: Q04DX003 (ip), vehicle: saline 91 % of control

O=C(O)/C(=C/c1ccccc1)c1ccccc1
inactive: dose: 100.0 mg/kg/injection, schedule: Q04DX002 (ip), vehicle: saline with Tween-80 95 % of control and 96 % of control | dose: 200.0 mg/kg/injection, schedule: Q04DX002 (ip), vehicle: saline with Tween-80 96 % of control and 88 % of control

N#C/C(=C\C=C\c1ccccc1)C(=O)O
inactive: dose: 12.5 mg/kg/injection, schedule: Q04DX003 (ip), vehicle: Klucel (hydroxypropylcellulose) (HPC) 96 % of control | dose: 25.0 mg/kg/injection, schedule: Q04DX003 (ip), vehicle: Klucel (hydroxypropylcellulose) (HPC) 107 % of control | [12] 96 % of control | [2] 94 % of control

CC1=CC(=N/S(=O)(=O)c2ccccc2)/C2CC(C)=C(C)CC2/C1=N\S(=O)(=O)c1ccccc1 (centres undefined)
inactive: [1] 95 % of control | [2] 95 % of control | [3] 104 % of control | [4] 92 % of control | [5] 103 % of control

Cc1cccc(Cl)c1NC(=O)Oc1ccccc1C(N)=O
inactive: [1] 92 % of control | dose: 100.0 mg/kg/injection, schedule: Q04DX002 (ip), vehicle: Klucel (hydroxypropylcellulose) (HPC) 95 % of control | [3] 100 % of control | dose: 200.0 mg/kg/injection, schedule: Q04DX002 (ip), vehicle: Klucel (hydroxypropylcellulose) (HPC) 100 % of control | [5] 105 % of control | dose: 400.0 mg/kg/injection, schedule: Q04DX002 (ip), vehicle: Klucel (hydroxypropylcellulose) (HPC) 100 % of control

CN(C)C(=S)N(C(=S)N(C)C)c1ccc(Cl)cc1
inactive: dose: 100.0 mg/kg/injection, schedule: Q01DX001 (ip), vehicle: saline 101 % of control | dose: 200.0 mg/kg/injection, schedule: Q01DX001 (ip), vehicle: saline 92 % of control | dose: 400.0 mg/kg/injection, schedule: Q01DX001 (ip), vehicle: saline 97 % of control
